Patent US8546377B2 (AbbVie Inc., priority 2009, dated 2013)
Where two headings read alike, the source gives them in different places.

Assays:
5HT2B receptors = target: T1, 5HT2B receptors (Homo sapiens, UniProt P41595); experiment: Human 5-HT2B functional assay in CHO-K1 cells (calcium flux, FLIPR); format: cell-based
T1 construct: expressed in transfected cells; host or cells: CHO-K1 cells
Method: (§1) (iii) Human 5-HT2C and 5-HT2B Functional Assay in CHO-K1 Cells
(§2) CHO-K1 cells over-expressing 5HT2C or 5HT2B receptors were grown in 1272 cm^2 flasks to 70-80% confluency in UltraCHO media supplemented with 1% dialyzed fetal bovine serum (FBS), 250 μg/mL zeocin, 100 U/mL penicillin/streptomycin, and 400 μg/mL geneticin. The cells were dissociated from the flasks using 0.05% trypsin, resuspended in freezing media and stored in liquid nitrogen until use. Calcium flux experiments were done using frozen cells. The cells were diluted in media containing 1% dialyzed FBS and 100 U/mL penicillin/streptomycin and plated into 384-well poly-D-Lysine coated plates (15,000 cells/well). Then the plates were incubated overnight in a cell incubator at 37° C., 5% CO2. On the next day, the growth media was replaced with media without FBS and further incubated overnight. On day three, the changes in intracellular Ca^2+ were determined using calcium sensitive fluorescent dye, Ca4 (MDS Analytical Technologies, Sunnyvale, Calif.) by loading 15 μL of diluted dye with 2.5 mM probenecid into the cells containing media and incubated at room temperature for 60 minutes in dark.
(§3) Fluorescence measurements were read at 25° C. at an excitation wavelength of 480 nm and an emission wavelength of 530 nm in FLIPR (MDS). Baseline fluorescence was measured for the first 10 seconds and then 15 μL of 4× concentrations of serotonin/test compounds was added to the cell plate. The fluorescence intensity was captured every second for the first 1 minute followed by every 5 seconds for an additional 2 minutes. The increase in fluorescent response was determined and was normalized to the response of serotonin. The concentration response of compounds was done from a starting concentration of 10 μM, 1:10 dilution across 6 wells with a final dimethyl sulfoxide concentration of 0.2% and was fitted using a 4-parameter logistic equation. The concentration at which a compound exerts half its maximal effect was named as ‘effective concentration 50’ or ‘EC50’.
(§4) Emax is the maximum functional response or efficacy expressed as a percentage relative to the effect of serotonin.

5HT2C receptors = target: T2, 5HT2C receptors (Homo sapiens, UniProt P28335); experiment: Human 5-HT2C functional assay in CHO-K1 cells (calcium flux, FLIPR); format: cell-based; set-up: expressed in transfected cells; host or cells: CHO-K1 cells
T2 sequence (P28335 33-458): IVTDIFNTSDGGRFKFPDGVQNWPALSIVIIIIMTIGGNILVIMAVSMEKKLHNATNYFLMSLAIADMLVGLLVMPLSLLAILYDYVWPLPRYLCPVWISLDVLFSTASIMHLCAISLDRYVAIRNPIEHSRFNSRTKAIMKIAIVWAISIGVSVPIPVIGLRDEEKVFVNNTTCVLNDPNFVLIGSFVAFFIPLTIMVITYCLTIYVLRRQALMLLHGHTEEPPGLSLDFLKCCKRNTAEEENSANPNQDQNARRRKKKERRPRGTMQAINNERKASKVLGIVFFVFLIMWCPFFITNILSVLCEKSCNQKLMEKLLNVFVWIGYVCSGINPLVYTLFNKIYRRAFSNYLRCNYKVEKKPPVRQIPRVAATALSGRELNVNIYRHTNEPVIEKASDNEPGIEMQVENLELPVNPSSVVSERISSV
Method: as §1, §2, §3, §4

[1] = CHO-K1 cells over-expressing 5HT2B, calcium flux, read-out: EC50 (μM), 5-HT2B Agonist Activity
[2] = CHO-K1 cells, percentage relative to the effect of serotonin, read-out: Emax (%), 5-HT2B Agonist Activity
[3] = CHO-K1 cells over-expressing 5HT2C, calcium flux, read-out: EC50 (μM), 5-HT2c Agonist Activity
[4] = CHO-K1 cells, percentage relative to the effect of serotonin, read-out: Emax (%), 5-HT2c Agonist Activity
[5] = CHO-K1, read-out: Emax (%), 5-HT2c Agonist Activity, CHO-K1 cells, percentage relative to the effect of serotonin
[6] = CHO-K1, read-out: Emax (%), 5-HT2B Agonist Activity

T1 sequence (P41595 whole entry): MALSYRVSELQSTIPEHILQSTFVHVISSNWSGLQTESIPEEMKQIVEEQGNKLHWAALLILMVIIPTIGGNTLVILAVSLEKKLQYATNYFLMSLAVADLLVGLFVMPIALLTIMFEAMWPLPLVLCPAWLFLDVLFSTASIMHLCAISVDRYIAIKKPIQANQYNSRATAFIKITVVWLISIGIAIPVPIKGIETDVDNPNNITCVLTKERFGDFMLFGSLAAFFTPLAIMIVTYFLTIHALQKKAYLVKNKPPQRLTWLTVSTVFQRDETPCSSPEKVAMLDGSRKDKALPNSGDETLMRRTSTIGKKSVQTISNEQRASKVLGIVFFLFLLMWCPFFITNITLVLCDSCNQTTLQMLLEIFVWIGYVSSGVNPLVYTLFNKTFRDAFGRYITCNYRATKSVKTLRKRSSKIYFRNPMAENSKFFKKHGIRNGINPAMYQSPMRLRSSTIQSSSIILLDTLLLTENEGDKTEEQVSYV

| EC50 (5HT2B receptors; [1]) [µM] | EC50 (5HT2C receptors; [3]) [µM] | Emax (5HT2C receptors; [4]) [%] | Compound | EC50 (5HT2B receptors) [µM] | EC50 (5HT2C receptors) [µM] | Emax (5HT2C receptors; [5]) [%] | also measured |
| --- | --- | --- | --- | --- | --- | --- | --- |
| 0.2 | 0.05 | > 120 | O=C1CC2CNCCN2c2cc(COc3ccccc3F)ccc2N1 (stereo not drawn) [Example 113, 10-[(2-fluorophenoxy)methyl]-1,2,3,4,4a,5-hexahydropyrazino[1,2-a][1,5]-benzodiazepin-6(7H)-one] | – | – | – | Emax (5HT2B receptors; [2]): 50% |
| 0.4 | 0.05 | > 120 | O=C1CC2CNCCN2c2cc(COc3cccc(F)c3)ccc2N1 (stereo not drawn) [Example 114, 10-[(3-fluorophenoxy)methyl]-1,2,3,4,4a,5-hexahydropyrazino[1,2-a][1,5]benzodiazepin-6(7H)-one] | – | – | – | Emax (5HT2B receptors; [2]): 30% |
| > 10 | 0.2 | > 120 | O=C1CC2CNCCN2c2cc(COc3ccc(F)cc3)ccc2N1 (stereo not drawn) [Example 115, 10-[(4-fluorophenoxy)methyl]-1,2,3,4,4a,5-hexahydropyrazino[1,2-a][1,5]benzodiazepin-6(7H)-one] | – | – | – | – |
| 0.05 | 0.008 | > 120 | O=C1C[C@H]2CNCCN2c2cc(-c3ccccc3F)ccc2N1 [Example 116, (4aS)-10-(2-fluorophenyl)-1,2,3,4,4a,5-hexahydropyrazino[1,2-a][1,5]benzodiazepin-6(7H)-one] | – | – | – | Emax (5HT2B receptors; [2]): 30% |
| > 10 | 0.001 | > 120 | CC(C)Oc1cccc(-c2ccc3c(c2)N2CCNC[C@@H]2CC(=O)N3)c1 [Example 117, (4aS)-10-(3-isopropoxyphenyl)-1,2,3,4,4a,5-hexahydropyrazino[1,2-a][1,5]benzodiazepin-6(7H)-one] | – | – | – | – |
| > 10 | 0.009 | > 120 | O=C1C[C@H]2CNCCN2c2cc(OCCc3ccccc3F)ccc2N1 [Example 118, (4aS)-10-[2-(2-fluorophenyl)ethoxy]-1,2,3,4,4a,5-hexahydropyrazino[1,2-a][1,5]benzodiazepin-6(7H)-one] | – | – | – | – |
| 0.08 | 0.04 | 110 | O=C1C[C@H]2CNCCN2c2cc(OC(F)F)ccc2N1 [Example 131, (4aS)-10-(difluoromethoxy)-1,2,3,4,4a,5-hexahydropyrazino[1,2-a][1,5]benzodiazepin-6(7H)-one] | – | – | – | Emax (5HT2B receptors; [2]): 20% |
| – | – | – | CN1CCN2c3ccccc3OCC[C@H]2C1 [Example 132, (4aS)-3-methyl-2,3,4,4a,5,6-hexahydro-1H-pyrazino[2,1-d][1,5]benzoxazepine] | > 10 | 0.007 | > 120 | – |
| – | – | – | Cc1ccc2c(c1)OCC[C@H]1CNCCN21 [Example 133, (4aS)-9-methyl-2,3,4,4a,5,6-hexahydro-1H-pyrazino[2,1-d][1,5]benzoxazepine] | > 10 | 0.01 | 100 | – |
| – | – | – | COc1ccc2c(c1)OCC[C@H]1CNCCN21 [Example 134, (4aS)-9-methoxy-2,3,4,4a,5,6-hexahydro-1H-pyrazino[2,1-d][1,5]benzoxazepine] | – | – | – | EC50 (5HT2B receptors; read-out: EC50 (μM), 5-HT2B Agonist Activity, CHO-K1 cells over-expressing 5HT2B, calcium flux): > 10 µM; Emax (%), 5-HT2c Agonist Activity (5HT2C receptors; CHO-K1 cells, percentage relative to the effect of serotonin): 100%; EC50 (5HT2C receptors; read-out: EC50 (μM), 5-HT2c Agonist Activity, CHO-K1 cells over-expressing 5HT2C, calcium flux): 0.05 µM |
| – | – | – | Fc1ccc2c(c1)OCC[C@H]1CNCCN21 [Example 136, (4aS)-9-fluoro-2,3,4,4a,5,6-hexahydro-1H-pyrazino[2,1-d][1,5]benzoxazepine] | 0.1 | 0.002 | > 120 | Emax (5HT2B receptors; [6]): 20% |
| – | – | – | Cc1ccc2c(c1)N1CCNC[C@@H]1CCO2 [Example 137, (4aS)-10-methyl-2,3,4,4a,5,6-hexahydro-1H-pyrazino[2,1-d][1,5]benzoxazepine] | 0.05 | 0.002 | > 120 | Emax (5HT2B receptors; [6]): 60% |
| – | – | – | Clc1cccc2c1OCC[C@H]1CNCCN21 [Example 138, (4aS)-8-chloro-2,3,4,4a,5,6-hexahydro-1H-pyrazino[2,1-d][1,5]benzoxazepine] | > 10 | 0.0007 | > 120 | – |

| Compound | EC50 (5HT2B receptors; [1]) [µM] | EC50 (5HT2C receptors; [3]) [µM] | Emax (5HT2C receptors; [4]) [%] | EC50 (5HT2B receptors) [µM] | EC50 (5HT2C receptors) [µM] | Emax (5HT2C receptors; [5]) [%] | also measured |
| --- | --- | --- | --- | --- | --- | --- | --- |
| Nc1ccc2c(c1)OCC[C@H]1CNCCN21 [Example 135, (4aS)-2,3,4,4a,5,6-hexahydro-1H-pyrazino[2,1-d][1,5]benzoxazepin-9-amine] | > 10 | 1 | – | – | – | 80 | – |
